We go through one compound from US20230104074A1, “BORTEZOMIB COMPOSITIONS” (MAIA Pharmaceuticals, Inc., priority 2021, published 2023).

Data set [1] in a line: DMSO in water formulations: dissolution, physical stability, effect of pH on chemical stability. Type of data set: physicochemical. As to conditions: 1 mg/mL, 1% (v/v) DMSO in water, pH 5.5. The method, then:
Various concentrations of DMSO were explored as the non-aqueous component of the formulation (2% v/v to 5% v/v in water). Bortezomib was first completely dissolved in the batch volume of DMSO to form a concentrated “premix” solution prior to making up the batch to the target concentration (2.5 mg/mL) with water. This was done to facilitate the subsequent dissolution of bortezomib in the aqueous component. The pH values of the formulations were all approximately 7.
The effect of pH on bortezomib formulations using a low concentration of DMSO in water (4.5% v/v DMSO for the 2.5 mg/mL strength and 1% v/v DMSO for the 1 mg/mL strength) was then assessed. In each case, the bortezomib was first fully dissolved in the batch quantity of DMSO to form a concentrated premix solution, which was then added to water, and the pH adjusted with sodium hydroxide and/or hydrochloric acid to pH ranging from 4 to 8.5. […] Because oxidative degradation is a significant degradation pathway for bortezomib, filled vials were overlayed with nitrogen. These batches were placed on stability at accelerated (25° C.) and long-term storage conditions (2-8° C.). […]

A short description of data set [2]: Formulation attempts at 2.5 mg/mL with low concentrations of benzyl alcohol and other non-aqueous solvents. It is filed as physicochemical. The method, then: Initial formulation experiments with low concentrations of various non-aqueous solvents were conducted targeting a bortezomib concentration of 2.5 mg/mL. Attempts to solubilize bortezomib were conducted using low concentrations of benzyl alcohol (2% v/v), or dimethyl sulfoxide (5% v/v), or a combination of these solvents. […] For these formulations, the non-aqueous solvent was added to bortezomib to dissolve it, followed by addition of water to the bortezomib-solvent mixture.

The structures appear in SMILES notation.

Take `CC(C)C[C@H](NC(=O)[C@H](Cc1ccccc1)NC(=O)c1cnccn1)B(O)O` [Bortezomib, [(1R)-3-methyl-1-[[(2S)-1-oxo-3-phenyl-2-[(pyrazinylcarbonyl)amino]propyl]amino]butyl] boronic acid]: the “Total Impurities after 2 months at 25° C. (%)” value in data set [1] came to 0.52%. In data set [2] (heating up to 70° C., precipitated bortezomib not dissolved), the “Appearance on heating the solution” value is reported as “a pink color formed indicating degradation of the active”. The “Dissolution on addition of water to bortezomib-solvent mixture” value in data set [2] (target 2.5 mg/mL, benzyl alcohol (2% v/v), DMSO (5% v/v) or combination, mixing >3 hours) is recorded as “precipitated after addition of water”.
